Measured values as given in patent US20200277262A1, “N-(CYANO-SUBSTITUTED BENZYL OR PYRIDINYLMETHYL)-3-HYDROXYPICOLINAMIDE DERIVATIVES” (Takeda Pharmaceutical Company Limited, priority 2017, published 2020).

Assays:
[1] = molecular target: T1, PHD2 enzyme (residues 181-417) (Homo sapiens, UniProt Q9GZT9); assay: Inhibition of PHD2 Enzyme (LC/MS detection of hydroxylated peptide); assay type: biochemical; details: 5 nM enzyme, 1 μM biotin-labeled peptide, 2 μM 2-oxoglutarate, 60 min pre-incubation, pH 7.3; -log(IC50), IC50 molar; read-out: Inhibition of PHD2 (pIC50) (converted)
T1 construct: The IC50 values for the PHD2 enzyme (residues 181-417) were determined
Experimental: The IC50 values for the PHD2 enzyme (residues 181-417) were determined by mixing increasing amounts of an inhibitor with a fixed amount of enzyme (5 nM, final concentration) and Biotin-labeled peptide (Biotin-Asp-Leu-Glu-Met-Leu-Ala-Pro-Tyr-Ile-Pro-Met-Asp-Asp-Asp-Phe-Gln-Leu, 1 μM final concentration) and 2-oxyglutarate (2 μM final concentration) in 50 mM HEPES, 50 mM KCl, 0.5 mM TCEP, 2 μM FeCl2, 0.1 mg/mL BSA, at pH 7.3. The reaction was conducted by pre-incubating the enzyme in the presence of the inhibitor for 60 minutes at room temperature. The activity of the free enzyme was measured by adding the peptide, the 2-oxoglutarate, and ascorbic acid (1 mM final concentration). The enzymatic activity was quenched after 60 minutes by adding an excess of a tight binding inhibitor to the assay mixture. The amount of product released was measured by using a LC/MS system (Agilent HPLC with Applied Biosystems API3000 Mass Spectrometer). Data were analyzed using the classical isotherm equation for the determination of IC50 values and are reported in Table 1, below, as pIC50, i.e., −log(IC50), where IC50 is molar concentration of the test compound at 50% inhibition.
(§1) Table 1 lists biological data for some of the compounds shown in the examples, where larger pIC50 and pEC50 values represent higher potency or activity, respectively. The IC50 data (reported in Table 1 as pIC50) were obtained using the enzyme-based assay described in the specification under the heading “Inhibition of PHD2 Enzyme.” The EC50 data (reported in Table 1 as pEC50) were obtained using the cell-based assay described in the specification under the heading “Cell-based HIF-α Stabilization Assay.”

[2] = system: HIF1a protein content in H9c2 rat cardiomyocytes; assay: Cell-based HIF-α Stabilization Assay (HIF1a ELISA); details: H9c2 cells, 24 hours compound incubation, concentration giving 50% of desferrioxamine maximum response, -log(EC50), EC50 molar, read-out: Stabilization of HIF-α (pEC50) (converted)
Experimental: H9c2 rat cardiomyocytes (ATCC) were seeded in 96-well tissue culture microplates and cultured for 24 hours prior to addition of compounds (11 point range of serial dilutions) or DMSO vehicle. After 24 hours of compound incubation, whole cell extracts were prepared by lysing cells in cell extraction buffer containing protease and phosphatase inhibitors (Meso-Scale Discovery). HIF1a protein content was assessed by ELISA (Meso-Scale Discovery) and expressed as % relative to the maximum response obtained from the positive control, desferrioxamine (Sigma-Aldrich). EC50 for each compound was obtained by curve-fitting using XLfit4 MicroSoft Excel curve-fitting software to calculate the compound concentration that results in 50% of the desferrioxamine maximum response.
as §1

T1 sequence (Q9GZT9 181-417): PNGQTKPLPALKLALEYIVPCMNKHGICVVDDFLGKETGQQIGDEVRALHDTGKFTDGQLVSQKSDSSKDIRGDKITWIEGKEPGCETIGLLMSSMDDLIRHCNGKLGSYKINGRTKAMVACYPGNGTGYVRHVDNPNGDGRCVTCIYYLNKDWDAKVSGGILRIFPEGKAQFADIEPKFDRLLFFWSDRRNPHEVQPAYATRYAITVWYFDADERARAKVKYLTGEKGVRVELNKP

Structure (SMILES) | IC50 [1] [nM] | EC50 [2] [nM]
CCN1CCN(C(=O)c2cnc(C(=O)N[C@@H]3CCc4cc(C#N)ccc43)c(O)c2)CC1 [Example 9, (R)—N-(5-cyano-2,3-dihydro-1H-inden-1-yl)-5-(4-ethylpiperazine-1-carbonyl)-3-hydroxypicolinamide] | 50.1 | 12600
Cc1cc(CNC(=O)c2ncccc2O)c(C)cc1C#N [Example 12, N-(4-cyano-2,5-dimethylbenzyl)-3-hydroxypicolinamide] | 39.8 | 25100
N#Cc1ccc2c(c1)CC[C@@H]2NC(=O)c1ncccc1O [Example 21, (S)—N-(5-cyano-2,3-dihydro-1H-inden-1-yl)-3-hydroxypicolinamide] | 2510 | 50100
Cc1cc(C#N)cc(C)c1CNC(=O)c1ncccc1O [Example 10, N-(4-cyano-2,6-dimethylbenzyl)-3-hydroxypicolinamide] | 12.6 | 3160
COCCCNc1cnc(C(=O)NCc2c(C)cc(C#N)cc2C)c(O)c1 [Example 40, N-(4-cyano-2,6-dimethylbenzyl)-3-hydroxy-5-((3-methoxypropyl)amino)picolinamide] | 31.6 | 2510
